“And” between values parts separate entries of the source, which are not always exact repeats. Equal values may be shown once.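 All cell lines were grown in 96-well plates and treated with compound for 48 hours. The concentration for 50% growth inhibition is given as GI50. TGI: total growth inhibition.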
How the values were obtained:
Assay in all cases: NCI tumour cell line growth inhibition, 48 h
TK-10 renal = tested on: TK-10 renal
MOLT-4 leukemia = tested on: MOLT-4 leukemia
SF-295 CNS = tested on: SF-295 CNS
ACHN renal = tested on: ACHN renal
786-0 renal = tested on: 786-0 renal
A549 NSCLC = tested on: A549 NSCLC
OVCAR-3 ovarian = tested on: OVCAR-3 ovarian
RXF 393 renal = tested on: RXF 393 renal
DU-145 prostate = tested on: DU-145 prostate
NCI/ADR-RES ovarian = tested on: NCI/ADR-RES ovarian

| SMILES | TGI (TK-10 renal) | TGI (MOLT-4 leukemia) [µM] | TGI (SF-295 CNS) | TGI (ACHN renal) [µM] | TGI (786-0 renal) | TGI (A549 NSCLC) [µM] | TGI (OVCAR-3 ovarian) | TGI (RXF 393 renal) | GI50 (RXF 393 renal) | GI50 (TK-10 renal) | GI50 (DU-145 prostate) [µM] | TGI (DU-145 prostate) | GI50 (MOLT-4 leukemia) [µM] | GI50 (SF-295 CNS) [µM] | GI50 (ACHN renal) [µM] | GI50 (NCI/ADR-RES ovarian) [µM] | TGI (NCI/ADR-RES ovarian) [µM] | GI50 (786-0 renal) [µM] | GI50 (A549 NSCLC) | GI50 (OVCAR-3 ovarian) [µM] |
| --- | --- | --- | --- | --- | --- | --- | --- | --- | --- | --- | --- | --- | --- | --- | --- | --- | --- | --- | --- | --- |
| c1ccc2cc(-c3cc4ccccc4s3)ccc2c1 | > 100 µM | > 100 | > 100 µM | > 100 | > 100 µM | > 100 | > 100 µM |  |  |  |  |  |  |  |  |  |  |  |  |  |
| O=c1/c(=C/c2ccccc2[N+](=O)[O-])sc2nnc(-c3ccco3)n12 | > 100 µM | 62 | 55.5 µM | > 100 | > 100 µM | 60.3 | 32.4 µM | 32.6 µM |  |  |  |  |  |  |  |  |  |  |  |  |
| OC(CC1SCCCS1)c1ccccc1 (stereo unspecified) | > 100 µM | > 100 | > 100 µM | > 100 | > 100 µM | > 100 | > 100 µM | > 100 µM |  |  |  |  |  |  |  |  |  |  |  |  |
| COC(=O)COc1ccccc1/C=C1\N=C(c2ccccc2)N(c2cc(C(F)(F)F)ccc2Cl)C1=O | > 100 µM | 62.3 | > 100 µM | > 100 | > 100 µM | > 100 | 98.6 µM | > 100 µM | 71.6 µM | 56.3 µM | 22.1 | 47.1 µM | 23 | > 100 | 57 | 45.8 | > 100 | 91.2 | 97.4 µM | 34 |
| CC(C)N(C(=O)C12C3C4C1C1C4(C#N)C3C12C#N)C(C)C (stereo unspecified) | > 100 µM | > 100 | > 100 µM | > 100 | > 100 µM | > 100 | > 100 µM | > 100 µM |  |  |  |  |  |  |  |  |  |  |  |  |
| CC/C=C\C[C@H](O)C/C=C1/C(=O)C(Cl)=C[C@@H]1C/C=C\CCCC(=O)OC | 3.09 µM | 1.95 | 5.83 µM | 0.849 | 1.56 µM | 7.52 | 1.88 µM | 3.58 µM | 1.09 µM | 0.946 µM | 0.692 | 2.7 µM | 0.472 | 2.4 | 0.378 | 0.581 | 9.14 | 0.486 | 2.64 µM | 0.525 |
| Nc1ccc([N+](=O)[O-])cc1N=C/C=C/c1ccccc1 | > 100 µM | > 100 | > 100 µM | > 100 | > 100 µM | > 100 | 26.8 µM | > 100 µM | 22.7 µM | 33.3 µM | 13.9 | 64.9 µM | 3.89 | 21.7 | 34.4 | 7.84 | > 100 | 23.3 | 21.9 µM | 4.95 |
| N=C(N)C1CN(CCc2c[nH]c3ccccc23)C(=O)NC1=O (stereo unspecified) | > 100 µM | > 100 | > 100 µM | > 100 | > 100 µM | > 100 | > 100 µM |  |  |  |  | > 100 µM |  |  |  |  | > 100 |  |  |  |
| C#CCOc1cccc(-c2ncc3cc(NC(=O)CCl)ccc3n2)c1 | 4.85 µM |  | 17 µM | 3.19 | 3.59 µM | 4.43 | 3.79 µM | 3.09 µM | 1.64 µM | 2.6 µM | 1.79 | 3.19 µM |  | 3.65 | 1.72 | 3.07 | > 100 | 2.01 | 2.11 µM | 1.93 |
| O=C(CCN(C(=O)O)S(=O)(=O)c1ccc(NC(=O)c2ccccc2)cc1)Nc1ccccc1 | > 100 µM | > 85.3 | > 100 µM | > 100 | > 100 µM | > 46.4 | > 100 µM | > 100 µM |  |  |  |  |  |  |  |  |  |  |  |  |
| COc1cccc2c1C(=O)c1c(O)c3c(c(O)c1C2=O)C[C@@](O)(C(=O)CO)C[C@@H]3OC1CC(N)CC(C)O1 (stereo partly specified) | 1.55 µM and 3.45 µM |  | 0.208 µM and 0.13 µM | 0.289 | 0.514 µM and 0.568 µM |  | 1.11 µM and 1.22 µM | 0.298 µM and 0.369 µM | 0.122 µM and 0.0806 µM | 0.396 µM and 0.148 µM |  | 0.175 µM and 1.22 µM |  | 0.018 | 0.0175 | 2.75 | 28.2 | 0.02 | 0.00992 µM and 0.0107 µM and 0.0315 µM | 0.102 |
| Cc1c2n(c(=O)[nH]c1=O)C1OC(CO)C(O2)C1O (stereo unspecified) | > 100 µM | > 100 | > 100 µM | > 100 | > 100 µM | > 100 | > 100 µM | > 100 µM |  |  |  |  |  |  |  |  |  |  |  |  |
| CSc1nc(=O)n(CCC#N)nc1SC | > 100 µM | 67.6 | > 100 µM | > 100 | 44.6 µM | > 100 | 32 µM |  |  |  |  | > 100 µM |  |  |  |  | > 100 |  |  |  |
| CCCCOC(=O)CNC(=O)OC/C=C/C#CC#C/C=C/COC(=O)NCC(=O)OCCCC | > 100 µM | > 100 | > 100 µM | > 100 | > 100 µM | > 100 | > 100 µM | > 100 µM | > 100 µM | > 100 µM |  |  | > 100 | > 100 | > 100 |  |  | > 10 | > 100 µM | > 100 |
| NC(=S)N/N=C/C(=O)O |  | > 100 | > 100 µM | > 100 | > 100 µM | > 100 | > 100 µM |  |  |  | > 100 | > 100 µM | 72.5 | > 100 | > 100 | 96.3 | > 100 | > 100 | 96.8 µM | 31.7 |
| Nc1nc(Cl)cc(NCCCCCCCCNc2cc(Cl)nc(N)n2)n1 | > 100 µM |  | 92.1 µM | 0.735 | > 100 µM | > 100 | > 100 µM | 72 µM |  |  |  |  |  |  |  |  |  |  |  |  |
| CCC12CCCN(Cc3ccccc3)C1c1c(n(C)c3ccccc13)CC2 (stereo unspecified) | > 253 µM | > 253 | > 253 µM | > 253 | > 253 µM | > 25.3 | 215 µM | > 253 µM |  |  |  |  |  |  |  |  |  |  |  |  |

Reference: PubChem BioAssay (NCI)
